Reference: patent publication US7816519B2, “Derivatives of 1,2-dihydro-7-hydroxyquinolines containing fused rings” (Life Technologies Corporation, priority 2000, dated 2010)

Key:
[1] = in ethyl alcohol; cited from earlier work
[2] = test system: Mouse monocyte-macrophage, Abelson Leukemia Virus Transformed (RAW264.7) cells; assay: Discrimination of live and dead cells by flow cytometry; assay type: cell-based; details: heat-killed fraction (50° C., 20 minutes), 30 minutes on ice
Protocol: Selected dyes of the invention are highly polar, and therefore relatively impermeable to the membranes of live cells. These dyes can therefore be used to discriminate cells that have intact versus compromised cell membranes in a single-color assay as follows: Mouse monocyte-macrophage, Abelson Leukemia Virus Transformed (RAW264.7) cells are trypsinized and washed with phosphate buffered saline (PBS), pH 7.2. Approximately 8-10 million cells suspended in 180 μL of PBS, pH 7.2 are placed in a glass test tube and heated in a water bath at 50° C. for 20 minutes to kill a fraction of the cells. […] The mixture is incubated on ice for 30 minutes and washed twice with PBS, followed by addition of 200 μL of PBS, pH 7.2. An identical aliquot of cells is treated with 2 μL of a 150 μM solution of propidium iodide in water (as a control for dead cells).

[3] = Fluorescence quantum yield determination against sulforhodamine 101 reference; assay type: physicochemical; details: excited at 560 nm, triplicate
Protocol: The fluorescence quantum yield of Compound 41 is determined using sulforhodamine 101 (in ethyl alcohol) as the reference standard (φF=0.90). The concentrations of sulforhodamine 101 (the reference) and Compound 41 are adjusted to obtain an absorbance of 0.25 (in 1 cm cell) at 560 nm. The sample and reference are each excited at 560 nm and their fluorescence spectra obtained. The fluorescence quantum yield of the sample (φF^X) in the indicated solvent was calculated from the following formula, considering that the peak area (AR) of the emission spectrum of the reference and that of the tested dye (AX) can be readily determined: φF^X=AxφF^RAR where φF^R and φF^X are the fluorescence quantum yields of the reference and the testing dye. The measurements are done in triplicate and the estimated errors are no more than 1%. The quantum yields of Compound 41 are determined to be 0.72 (in methyl alcohol) and 0.68 (in water) respectively.

[4] = Fluorescence of selected protein conjugates; assay type: physicochemical; details: protein conjugates prepared with Compound 42 as in Example 47
Protocol: A series of dye conjugates of goat anti-mouse IgG, streptavidin and other proteins, including R-phycoerythrin (R-PE) are prepared by standard means (Haugland et al., METH. MOL. BIOL. 45, 205 (1995); Haugland, METH. MOL. BIOL. 45, 223 (1995); Haugland, METH. MOL. BIOL. 45, 235 (1995)) using Compound 42 and a succinimidyl ester derivative of CY-5 dye.
A solution of the desired protein is prepared at 10 mg/mL in 0.1 M sodium bicarbonate. The labeling reagents are dissolved in DMF at 10 mg/mL. Predetermined amounts of the labeling reagents are added to the protein solutions with stirring. A molar ratio of 10 equivalents of dye to 1 equivalent of protein is typical, though the optimal amount varies with the particular labeling reagent, the protein being labeled and the protein's concentration, and is determined empirically. The reaction mixture is incubated at room temperature for one hour, or on ice for several hours. The dye-protein conjugate is typically separated from free unreacted reagent by size-exclusion chromatography on BIO-RAD P-30 resin equilibrated with PBS. The initial, protein-containing colored band is collected and the degree of substitution is determined from the absorbance at the absorbance maximum of each fluorophore, using the extinction coefficient of the free fluorophore.

[5] = Determination of the Ca2+ binding affinity (fluorescence titration, method of Tsien et al.)
Protocol: The fluorescence response and dissociation constant of Compound 58 is determined using the method described by Tsien et al. METH. ENZYM. 172, 230 (1989). Compound 58 (1 mg) is dissolved in deionized water and 5 µL of this solution is diluted into 3 mL of each of two buffers, which are cross diluted to arrive at a series of Ca^2+ concentrations between zero and 35 µM. Emission spectra of the dye solutions are scanned between dilutions to generate a family of curves. Each of these curves has maximal fluorescence emission at approximately 640 nm with an increase in fluorescence emission intensity with increasing Ca^2+ concentration. This intensity change is plotted against the concentration of free Ca^2+ to give a value for the dissociation constant of the indicator. The calculated dissociation constant at 20° C. is 57.5 μM.

[6] = test system: Neurons from zebrafish embryos; assay: Neuronal tracing using a hydrazide-labeled fluorophore (microinjection); assay type: cell-based
Source text: Neurons from zebrafish embryos are microinjected with Compound 44, using standard methods as described by Blankenfeld et al. (J. NEUROSCI. METH. 36, 309 (1991)). […] The staining is fixable in the cells using formaldehyde and standard fixing methods.

O=S(=O)([O-])c1cc(S(=O)(=O)O)ccc1C1=c2cc3c4c(c2Oc2c1cc1c5c2CCCN5CCC1)CCC[N+]=4CCC3 [sulforhodamine 101]
fluorescence quantum yield of reference standard (φF) [1]: 0.90

CN1c2cc3c(cc2-c2sc(S(=O)(=O)O)cc2C1(C)C)C(c1c(F)c(SCC(=O)ON2C(=O)CCC2=O)cc(F)c1S(=O)(=O)[O-])=c1cc2c(cc1O3)=[N+](C)C(C)(C)c1cc(S(=O)(=O)O)sc1-2 [Compound 42]
dead cell populations stained, compared with propidium iodide [2]: very similar

CN1c2cc3c(cc2-c2sc(S(=O)(=O)O)cc2C1(C)C)C(c1c(F)c(SCC(=O)O)cc(F)c1S(=O)(=O)[O-])=c1cc2c(cc1O3)=[N+](C)C(C)(C)c1cc(S(=O)(=O)O)sc1-2 [Compound 41]
fluorescence quantum yield ([3]; in methyl alcohol): 0.72 | fluorescence quantum yield ([3]; in water): 0.68

Wheat Germ Agglutinin
Quantum Yield [4]: 0.56

Cc1ccc(N(CC(=O)O)CC(=O)O)c(OCCOc2cc(C3=c4cc5c(cc4Oc4cc6c(cc43)-c3sc4ccccc4c3C(C)(C)N6C)=[N+](C)C(C)(C)c3c-5sc4ccccc34)ccc2N(CC(=O)[O-])CC(=O)O)c1 [Compound 58]
maximal fluorescence emission ([5]; Ca2+ buffer series, intensity increases with increasing Ca2+): approximately 640 nm | Kd ([5]; at 20° C., free Ca2+ between zero and 35 µM, read-out: dissociation constant (Ca2+)): 57.5 µM

CN1c2cc3c(cc2-c2sc(S(=O)(=O)O)cc2C1(C)C)C(c1c(F)c(SCC(=O)NN)cc(F)c1S(=O)(=O)[O-])=c1cc2c(cc1O3)=[N+](C)C(C)(C)c1cc(S(=O)(=O)O)sc1-2 [Compound 44]
filling and fluorescence of microinjected neurons [6]: neurons rapidly fill with the dye throughout their volume and their red fluorescence is readily observable
